Test results: patent US4938897A (Kureha Kagaku Kogyo Kabushiki Kaisha, priority 1985, dated 1990)

Experiments:
[1] = test system: 3T3 cells; experiment: Suppression of proliferation of mouse fibroblasts (3T3), Trypan blue living cell count; assay type: cell-based; details: 5 μg/ml
Method: (§1) The activity of one of the present substances, 3-dansyloxyestradiol-17β-[[4-[p-{bis(2-chloroethyl)amino}phenyl]butyryloxy]]acetate in suppressing the proliferation of (1) the fibroblasts of mouse (3T3) and (2) transformed fibroblasts of mouse by SV-40 virus (3T3 SV-40) was studied by in vitro tests as follows:
(§2) Into a culture medium consisting of 90% by weight of DALBECCO MEM and 10% of bovine foetus serum, a solution of the test substance in dimethylsulfoxide at a rate of 5 μg/ml was added (dimethylsulfoxide being 1% of the culture medium). After adjusting the pH of the three culture media respectively to 6.5, 7.0 and 7.8, the target cells were implanted into each culture medium at a rate of 2×10^4 cells/ml, and the culture media were incubated at 37° C. in an atmosphere of 5% of carbon dioxide for 3 and 6 days. After ending the incubation, the number of living cells which were not dyed with Trypan blue enumerated in the cultured medium to calculate the rate of suppression of the proliferation of the fibroblasts as follows: [formula] where Nc is the number of the living fibroblasts in control group and Nt is the number of living fibroblasts in the test group both in the unit area.
(§3) The activity of one of the present substance, 3-dansyloxyestradiol-17β-[[2-[p-{bis(2-chloroethyl)amino}phenyl]acetoxy]]acetate in suppressing the proliferation of mouse fibroblasts (3T3) and SV-40 virus-transformed fibroblasts (3T3 SV-40) was examined by the same method as in Example 4 except for (1) the days of incubation of 3 and 5 days instead of 3 and 6 days in Example 4 and (2) the pH of the culture medium of 6.7 instead of 6.7, 7.0 and 7.8 in Example 4.

[2] = test system: 3T3 SV-40 cells; experiment: Suppression of proliferation of mouse fibroblasts transformed by SV-40 virus (3T3 SV-40), Trypan blue living cell count; assay type: cell-based; details: for Rate of suppression (%): 3T3 SV-40 cells, 5 μg/ml
Method: as §1, §2, §3

[3] = test system: 3T3 SV-40 cells vs 3T3 cells; experiment: Intaking of test substance by 3T3 SV-40 cells compared to 3T3 cells, fluorescence microscope; assay type: cell-based, mouse
Method: Intaking of one of the present substances, 3-dansyloxyestradiol-17β-[[4-[p-{bis(2-chloroethyl)amino}phenyl]butyryloxy]]acetate, by mouse fibroblasts (3T3) and mouse transformed fibroblasts by SV-40 virus (3T3 SV-40) was examined with a fluorescence microscope under the following conditions:
Concentration of the test substance: 10 and 50 μg/ml
pH of culture medium: 6.5 and 7.8
Number of implanted cells: 2×10^4 cells/ml
Temperature and days of incubation: 37° C. for 5 days
Fixation: by aqueous 2.5% glutaraldehyde phosphate buffer for 90 minutes
Examination: by using a microscope (made by Olympus, BHS-RFK) with an exciting filter UGI and auxiliary absorption filter Y-475.
In the similar manner to that in Example 6, intaking of one of the present substances, 3-dansyloxyestradiol-17β-[[2-[p-{bis(2-chloroethyl)amino}phenyl]acetoxy]]acetate by mouse fibroblast (3T3) and mouse transformed fibroblast by SV-40 virus (3T3 SV-40) was studied.

[4] = Fluorescent determination (emission wave length); assay type: physicochemical; details: for emitted light wave length: ethyl acetate
Source text: As a result of fluorescent determination at a wave length of excitation light of 356 nm, the emitted light of 520 nm in wave length with ethyl acetate was observed.
As a result of fluorescent determination at a wave length of excitation light of 357 nm, the emitted light of 525 nm in wave length of this substance with ethyl acetate was observed.
Onto a chromatographic column prepared by filling 400 g of silica gel (made by Merck Co. under the name of Art 7734) into a glass tube of 36 mm in inner diameter and 865 mm in length by using chloroform, a solution of 12 g of the crude product dissolved in 50 ml of chloroform was charged, and the absorbed product was subjected to elution by a flow of chloroform at a flow rate of 7 ml/min, thereby 1400 ml of a fraction showing one spot on the chromatogram were obtained. By condensing the fraction, 9 g of wet product were obtained. The wet product was dissolved in 30 ml of chloroform, and after adding 50 ml of hexane to the prepared solution, the mixture was cooled while stirring thereof, however, since no crystal was precipitated therefrom, the solvent was distilled off therefrom by using an evaporator and the residue was dried under vacuum to obtain 7 g of a solid, fluorescent substance in a yield of 68.2%. […] Its emission fluorescence was 521 nm by the excitation light of 358 nm.

[5] = test system: FLOW 4000 cell; experiment: Suppression of proliferation of human normal renal cells (FLOW 4000); assay type: cell-based; details: 5 μg/ml, 37° C.
Method: as §2
(§4) The activity of one of the present substance, 3-dansyloxyestradiol-17β-[[4-[p-{bis(2-chloroethyl)amino}phenyl]butyryloxy]]acetate, in suppressing the proliferation of (1) human nomal renal cells (FLOW 4000) and (2) human renal cancer cells (RC) was examined as follows:
(§5) Into the same culture medium as in Example 4, a solution of the test substance dissolved in dimethylsulfoxide was added at a rate of 5 μg/ml (dimethylsulfoxide being 1% of the culture medium), and after adjusting the three culture media respectively to pH of 6.5, 7.0 and 7.8, the cells were implanted into each culture medium at a rate of 2×10^4 cells/ml, and the culture media implanted were incubated for 6 days at 37° C. in an atmosphere of 5% of carbon dioxide. The rate of suppression of the proliferation of the implanted cells was calculated by the same formula as in Example 4, the results being shown in Table 2.

[6] = test system: RC cell; experiment: Suppression of proliferation of human renal cancer cells (RC); assay type: cell-based; details: 5 μg/ml, 37° C.; for Rate of suppression (%): RC cell
Method: as §2, §4, §5

[7] = test system: human renal cancer cells (RC) vs normal human renal cells (FLOW 4000); experiment: Intaking of test substance by RC cells compared to FLOW 4000 cells, fluorescence microscope; assay type: cell-based; details: Example 8; 37° and 40° C. incubation
Method: In the similar manner to that in Example 7, intaking of one of the present substances, 3-dansyloxyestradiol-17β-[[4-[p-{bis(2-chloroethyl)amino}phenyl]butyryloxy]]acetate by the normal human renal cells (FLOW 4000) and the human renal cancer cells (RC) was examined by using the same fluorescence microscope as in Example 7. The incubation of the implanted cells was carried out at 37° and 40° C.

[8] = test system: mouse; details: for reference; cited from earlier work
[9] = pH 6.7, 3 days, 37° C. (Example 6)
[10] = pH 6.7, 5 days, 37° C. (Example 6)

CN(C)c1cccc2c(S(=O)(=O)Oc3ccc4c(c3)CC[C@@H]3[C@@H]4CC[C@]4(C)[C@@H](OC(=O)COC(=O)Cc5ccc(N(CCCl)CCCl)cc5)CC[C@@H]34)cccc12 [3-Dansyloxyestradiol-17β-[[2-[p-{bis(2-chloroethyl)amino}phenyl]acetoxy]]acetate]
Rate of suppression (%) [1, 9]: 25.24%
Rate of suppression (%) [1, 10]: 53.28%
Rate of suppression (%) [2, 9]: 55.72%
Rate of suppression (%) [2, 10]: 85.86%
Intaking of the test substance by 3T3 SV-40 compared to 3T3 ([3]; Example 9, FIG. 8: 5 μg/ml, pH 6.5, 4 days): remarkable as compared to that by 3T3

CN(C)c1cccc2c(S(=O)(=O)Oc3ccc4c(c3)CC[C@@H]3[C@@H]4CC[C@]4(C)[C@H](OC(=O)COC(=O)CCCc5ccc(N(CCCl)CCCl)cc5)CC[C@@H]34)cccc12 [3-dansyloxyestradiol-17α-[[4-[p-{bis(2-chloroethyl)amino}phenyl]butyryloxy]]acetate]
emitted light wave length ([4]; excitation light 357 nm): 525 nm

CN(C)c1cccc2c(S(=O)(=O)Oc3ccc4c(c3)CC[C@@H]3[C@@H]4CC[C@]4(C)[C@@H](OC(=O)COC(=O)c5ccc(N(CCCl)CCCl)cc5)CC[C@@H]34)cccc12 [3-dansyloxyestradiol-17β-[[1-[p-{bis(2-chloroethyl)amino}phenyl]carbonyloxy]]acetate]
emission fluorescence ([4]; excitation light 358 nm): 521 nm

CN(C)c1cccc2c(S(=O)(=O)Oc3ccc4c(c3)CC[C@@H]3[C@@H]4CC[C@]4(C)[C@@H](OC(=O)COC(=O)CCCc5ccc(N(CCCl)CCCl)cc5)CC[C@@H]34)cccc12 [3-dansyloxyestradiol-17β-[[4-[p-{bis(2-chloroethyl)amino}phenyl]butyryloxy]]acetate]
Rate of suppression (%) ([1]; pH 6.5, 3 days, 37° C.): 16.8%
Rate of suppression (%) ([1]; pH 6.5, 6 days, 37° C.): 14.76%
Rate of suppression (%) ([1]; pH 7.0, 3 days, 37° C.): 6.45%
Rate of suppression (%) ([1]; pH 7.0, 6 days, 37° C.): 20.03%
Rate of suppression (%) ([1]; pH 7.8, 3 days, 37° C.): 7.87%
Rate of suppression (%) ([1]; pH 7.8, 6 days, 37° C.): 11.30%
Rate of suppression (%) ([2]; pH 6.5, 3 days, 37° C.): 64.19%
Rate of suppression (%) ([2]; pH 6.5, 6 days, 37° C.): 91.60%
Rate of suppression (%) ([2]; pH 7.0, 3 days, 37° C.): 55.80%
Rate of suppression (%) ([2]; pH 7.0, 6 days, 37° C.): 85.88%
Rate of suppression (%) ([2]; pH 7.8, 3 days, 37° C.): 31.60%
Rate of suppression (%) ([2]; pH 7.8, 6 days, 37° C.): 38.80%
activity of suppressing the proliferation of transformed cells by SV-40 virus (in words) ([2]; Example 4, pH range of from 6.5 to 7.8, 5 μg/ml): clearly showed an activity of suppressing the proliferation of transformed cells by SV-40 virus
Rate of suppression (%) ([5]; pH 6.5, 6 days): 27.83%
Rate of suppression (%) ([5]; pH 7.0, 6 days): 14.00%
Rate of suppression (%) ([5]; pH 7.8, 6 days): -1.10%
suppression of the proliferation of human renal cancer cells (RC) (in words) ([6]; Example 5, 6 days): clearly suppressed the proliferation of the human renal cancer cells (RC)
Rate of suppression (%) ([6]; pH 6.5, 6 days): 54.54%
Rate of suppression (%) ([6]; pH 7.0, 6 days): 46.68%
Rate of suppression (%) ([6]; pH 7.8, 6 days): 22.39%
Intaking of the test substance by 3T3 SV-40 cells compared to 3T3 cells ([3]; Example 7, 10 and 50 μg/ml, pH 6.5 and 7.8, 37° C., 5 days): remarkably recognized as compared to that by 3T3 cells
Intaking of the test substance by RC cells compared to FLOW 4000 cells [7]: remarkable as compared to that by the normal human cells (FLOW 4000) at both 37° and 40 °C
emitted light wave length ([4]; excitation light 356 nm): 520 nm

O=C(O)CCCc1ccc(N(CCCl)CCCl)cc1 [chlorambucil]
LD50 [8]: 20 mg/kg body weight
